Literature values, collected in patent publication US20070231358A1, “INTRAVAGINAL TREATMENT OF VAGINAL INFECTIONS WITH METRONIDAZOLE COMPOSITIONS” (Tolmar, Inc., priority 2004, published 2007).
Like-named read-outs stand apart in the source and are kept apart here.

Assays:
bacterial vaginosis [1] = conditions: oral route; 400 to 500 mg twice daily for three to seven days or 2 grams single dose
bacterial vaginosis [2] = conditions: for Cured patients out of 19: four weeks after initiation; for Cure rate (%): four weeks after initiation of therapy
[3] = after a single oral dose of 2 grams
[4] = oral 400 mg morning and evening for seven days
[5] = vaginal insert 500 mg every evening for seven days

Cc1ncc([N+](=O)[O-])n1CCO [metronidazole, 1-(2-hydroxyethyl)-2-methyl-5-nitroimidazole]
Cure rates (bacterial vaginosis [1]): 80-90%
Side effects (bacterial vaginosis [2]; intravaginal use as the 500 mg insert): No side effects were reported
Cured patients out of 19 (bacterial vaginosis [2]; [4]): 14
Cure rate (%) (bacterial vaginosis [2]; [4]): 74%
Cured patients out of 19 (bacterial vaginosis [2]; [5]): 15
Cure rate (%) (bacterial vaginosis [2]; [5]): 79%
Lactate-producing microorganisms (Lactobacilli and aerobic Streptococci) after treatment (bacterial vaginosis [2]; vaginal versus oral treatment): found more frequently after vaginal than after oral treatment
Concentration of metronidazole in the vaginal fluid [3]: low concentration
